{"source": "patent US8735414B2", "about": "(priority 2009, dated 2014)", "key": {"[1]": {"tested_on": "bicistronic HCV replicon (replicon RNA, GenBank Accession No. AJ242654)", "assay": "HCV Replicon Assay", "type": "cell-based", "conditions": "Hepatitis C virus, 72 h, read-out: Replicon IC50"}}, "data": [{"smiles": "COc1ccc2c(C#N)c(-c3ccc(S(=O)(=O)N[C@@H](C)C(F)(F)F)cn3)n(C3CCCCC3)c2c1", "note": "[compound 519, 6-(3-cyano-1-cyclohexyl-6-methoxy-1H-indol-2-yl)-N-[(2S)-1,1,1-trifluoropropan-2-yl]pyridine-3-sulfonamide]", "values": [{"measurement": "IC50", "setting": "[1]", "value": "< 500", "unit": "nM"}, {"measurement": "melting point", "value": "197 to 204", "unit": "°C"}]}, {"smiles": "CC(C)NS(=O)(=O)c1cnc(-c2c(C#N)c3ccc(OC(F)F)cc3n2C(C)C)nc1", "note": "[compound 171, 2-[3-cyano-6-(difluoromethoxy)-1-(propan-2-yl)-1H-indol-2-yl]-N-(propan-2-yl)pyrimidine-5-sulfonamide]", "values": [{"measurement": "IC50", "setting": "[1]", "value": "< 500", "unit": "nM"}, {"measurement": "melting point", "value": "193 to 196", "unit": "°C"}]}, {"smiles": "CCc1cc2c(cc1F)c(C#N)c(-c1ccc(S(=O)(=O)N[C@@H](C)C(F)(F)F)cn1)n2-c1ccncc1", "note": "[compound 974, 6-[3-cyano-6-ethyl-5-fluoro-1-(pyridin-4-yl)-1H-indol-2-yl]-N-[(2S)-1,1,1-trifluoropropan-2-yl]pyridine-3-sulfonamide]", "values": [{"measurement": "IC50", "setting": "[1]", "value": "< 500", "unit": "nM"}, {"measurement": "melting point", "value": "209 to 215", "unit": "°C"}]}, {"smiles": "C[C@H](NS(=O)(=O)c1cnc(-c2c(C#N)c3cc(F)ccc3n2C2CCCC2)nc1)C1CC1", "note": "[compound 530, 2-(3-cyano-1-cyclopentyl-5-fluoro-1H-indol-2-yl)-N-[(1S)-1-cyclopropylethyl]pyrimidine-5-sulfonamide]", "values": [{"measurement": "IC50", "setting": "[1]", "value": "< 500", "unit": "nM"}, {"measurement": "melting point", "value": "184 to 186", "unit": "°C"}]}, {"smiles": "C[C@H](NS(=O)(=O)c1cnc(-c2c(C#N)c3ccc(OC(F)F)cc3n2C2CCCCC2)nc1)C(F)(F)F", "note": "[compound 472, 2-[3-cyano-1-cyclohexyl-6-(difluoromethoxy)-1H-indol-2-yl]-N-[(2S)-1,1,1-trifluoropropan-2-yl]pyrimidine-5-sulfonamide]", "values": [{"measurement": "IC50", "setting": "[1]", "value": "< 500", "unit": "nM"}, {"measurement": "melting point", "value": "187 to 189", "unit": "°C"}]}, {"smiles": "CC(C)Oc1ccc2c(C#N)c(-c3ccc(NS(C)(=O)=O)nn3)n(C3CCC3)c2c1", "note": "[compound 275, N-{6-[3-cyano-1-cyclobutyl-6-(propan-2-yloxy)-1H-indol-2-yl]pyridazin-3-yl}methanesulfonamide]", "values": [{"measurement": "IC50", "setting": "[1]", "value": "2000 to 5000", "unit": "nM"}, {"measurement": "melting point", "value": "225 to 227", "unit": "°C"}]}, {"smiles": "C[C@H](NS(=O)(=O)c1cnc(-c2c(C#N)c3ccc(CC(F)F)cc3n2C2CCCC2)nc1)C(F)(F)F", "note": "[compound 600, 2-[3-cyano-1-cyclopentyl-6-(2,2-difluoroethyl)-1H-indol-2-yl]-N-[(2S)-1,1,1-trifluoropropan-2-yl]pyrimidine-5-sulfonamide]", "values": [{"measurement": "IC50", "setting": "[1]", "value": "< 500", "unit": "nM"}, {"measurement": "melting point", "value": "240 to 246", "unit": "°C"}]}, {"smiles": "C[C@H](NS(=O)(=O)c1cnc(-c2c(C#N)c3ccc(CC(F)F)cc3n2C2CCC2)nc1)C(F)(F)F", "note": "[compound 385, 2-[3-cyano-1-cyclobutyl-6-(2,2-difluoroethyl)-1H-indol-2-yl]-N-[(2S)-1,1,1-trifluoropropan-2-yl]pyrimidine-5-sulfonamide]", "values": [{"measurement": "IC50", "setting": "[1]", "value": "< 500", "unit": "nM"}, {"measurement": "melting point", "value": "216 to 218", "unit": "°C"}]}, {"smiles": "N#Cc1c(-c2ccc(S(=O)(=O)NC(CF)CF)cn2)n(-c2ccccn2)c2cc(Cl)ccc12", "note": "[compound 438, 6-[6-chloro-3-cyano-1-(pyridin-2-yl)-1H-indol-2-yl]-N-(1,3-difluoropropan-2-yl)pyridine-3-sulfonamide]", "values": [{"measurement": "IC50", "setting": "[1]", "value": "< 500", "unit": "nM"}, {"measurement": "melting point", "value": "219 to 221", "unit": "°C"}]}, {"smiles": "C[C@@H](NS(=O)(=O)c1ccc(-c2c(C#N)c3ccc(OC(F)F)cc3n2-c2ccc(F)cc2)nc1)C(F)(F)F", "note": "[compound 649, 6-[3-cyano-6-(difluoromethoxy)-1-(4-fluorophenyl)-1H-indol-2-yl]-N-[(2R)-1,1,1-trifluoropropan-2-yl]pyridine-3-sulfonamide]", "values": [{"measurement": "IC50", "setting": "[1]", "value": "< 500", "unit": "nM"}, {"measurement": "melting point", "value": "199 to 203", "unit": "°C"}]}, {"smiles": "N#Cc1c(-c2ncc(S(=O)(=O)NC(CF)CF)cn2)n(CC2CC2)c2cc(OC(F)F)ccc12", "note": "[compound 136, 2-[3-cyano-1-(cyclopropylmethyl)-6-(difluoromethoxy)-1H-indol-2-yl]-N-(1,3-difluoropropan-2-yl)pyrimidine-5-sulfonamide]", "values": [{"measurement": "IC50", "setting": "[1]", "value": "< 500", "unit": "nM"}, {"measurement": "melting point", "value": "207 to 209", "unit": "°C"}]}]}
